Assays:
A549 [1] = experiment: Antiproliferative activity against human A549 cells assessed as reduction in cell growth at 8 uM incubated for 72 hrs by CCK-8 assay relative to control; assay type: functional; conditions: A549, 72 h
A-375 [2] = experiment: Antiproliferative activity against human A375 cells assessed as reduction in cell growth at 8 uM incubated for 72 hrs by CCK-8 assay relative to control; assay type: functional; conditions: A-375, 72 h
HCT-116 [3] = experiment: Antiproliferative activity against human HCT116 cells assessed as reduction in cell growth at 8 uM incubated for 72 hrs by CCK-8 assay relative to control; assay type: functional; conditions: HCT-116, 72 h
SMMC-7721 [4] = experiment: Antiproliferative activity against human SMMC7721 cells assessed as reduction in cell growth at 2 uM incubated for 72 hrs by CCK-8 assay relative to control; assay type: functional; conditions: SMMC-7721, 72 h
SMMC-7721 [5] = experiment: Antiproliferative activity against human SMMC7721 cells assessed as reduction in cell growth at 8 uM incubated for 72 hrs by CCK-8 assay relative to control; assay type: functional; conditions: SMMC-7721, 72 h
HeLa [6] = experiment: Antiproliferative activity against human HeLa cells assessed as reduction in cell growth at 2 uM incubated for 72 hrs by CCK-8 assay relative to control; assay type: functional
HeLa [7] = experiment: Antiproliferative activity against human HeLa cells assessed as reduction in cell growth at 8 uM incubated for 72 hrs by CCK-8 assay relative to control; assay type: functional
A-375 [8] = experiment: Antiproliferative activity against human A375 cells assessed as reduction in cell growth at 2 uM incubated for 72 hrs by CCK-8 assay relative to control; assay type: functional; conditions: A-375, 72 h
A549 [9] = experiment: Antiproliferative activity against human A549 cells assessed as reduction in cell growth at 2 uM incubated for 72 hrs by CCK-8 assay relative to control; assay type: functional; conditions: A549, 72 h
HCT-116 [10] = experiment: Antiproliferative activity against human HCT116 cells assessed as reduction in cell growth at 2 uM incubated for 72 hrs by CCK-8 assay relative to control; assay type: functional; conditions: HCT-116, 72 h
HCT-116 [11] = experiment: Antiproliferative activity against human HCT116 cells assessed as reduction in cell growth incubated for 72 hrs by CCK-8 assay; assay type: functional, cell-based; conditions: HCT-116, 72 h
SMMC-7721 [12] = experiment: Antiproliferative activity against human SMMC7721 cells assessed as reduction in cell growth incubated for 72 hrs by CCK-8 assay; assay type: functional, cell-based; conditions: SMMC-7721, 72 h

| Compound | inhibition at 8 µM (A549 [1]) [%] | inhibition at 8 µM (A-375 [2]) [%] | inhibition at 8 µM (HCT-116 [3]) [%] | inhibition at 2 µM (SMMC-7721 [4]) [%] | inhibition at 8 µM (SMMC-7721 [5]) [%] | inhibition at 2 µM (HeLa [6]) [%] | inhibition at 8 µM (HeLa [7]) [%] | inhibition at 2 µM (A-375 [8]) [%] | inhibition at 2 µM (A549 [9]) [%] | inhibition at 2 µM (HCT-116 [10]) [%] | IC50 (HCT-116 [11]) [µM] | IC50 (SMMC-7721 [12]) [µM] |
| --- | --- | --- | --- | --- | --- | --- | --- | --- | --- | --- | --- | --- |
| Cc1cccc2c(=O)n(C)c(SCc3ccc(/C=C/C(=O)Nc4ccccc4N)cc3)nc12 | 43.8 | 13.7 | 5.8 | 26.3 | 36.4 | 31.6 | 56.6 | 9.3 | 34 | 4.5 |  |  |
| CCCCn1c(SCc2ccc(C(=O)Nc3ccccc3N)cc2)nc2cc(Br)ccc2c1=O | 39.7 | 37.7 | 51.9 | 18.2 | 26.4 | 21.3 | 34.7 | 8.5 | 28.1 | 14.1 |  |  |
| CCCCn1c(SCc2ccc(C(=O)Nc3ccccc3N)cc2)nc2cc(F)ccc2c1=O | 46.5 | 43.1 | 78.2 | 9.1 | 41.6 | 30.9 | 30.9 | 18 | 41.1 | 22.8 | 3.63 |  |
| CCn1c(SCc2ccc(C(=O)Nc3ccccc3N)cc2)nc2cc(Cl)ccc2c1=O | 13.7 | 49.9 | 7.4 | 18.4 | 34.2 | 39.1 | 43.4 | 12.7 | 3.6 | 7.3 |  |  |
| CCn1c(SCc2ccc(C(=O)Nc3cc(F)ccc3N)cc2)nc2cc(OC)ccc2c1=O | 36.4 | 38.8 | 67.8 | 36 | 61.4 | 6.9 | 41.6 | 17.1 | 12.3 | 50.3 |  | 4.86 |
| Cc1cccc2nc(SCc3ccc(C(=O)Nc4ccccc4N)cc3)n(C)c(=O)c12 | 41.8 | 36.9 | 68.5 | 59.2 | 68.5 | 43.8 | 58.3 | 35.6 | 34.7 | 29.1 |  | 0.69 |
| CCn1c(SCC(=O)Nc2ccccc2N)nc2cc(Cl)ccc2c1=O | 27.5 | 32.5 | 6.9 | 1.8 | 2.1 | 39.2 | 59.7 | 24.4 | 14.2 | 3.9 |  |  |
| CCn1c(SCc2ccc(/C=C/C(=O)Nc3ccccc3N)cc2)nc2cc(Cl)ccc2c1=O | 45.7 | 22.9 | 28.4 | 12.1 | 28.4 | 8.7 | 21.8 | 12 | 31.6 | 12.1 |  |  |
| Cn1c(SCc2ccc(/C=C/C(=O)Nc3ccccc3N)cc2)nc2cc(F)ccc2c1=O | 22.9 | 6.4 | 3.3 | 12.3 | 29.5 | 12.7 | 21.2 | 1.6 | 2.9 | 0.9 |  |  |
| Cn1c(SCc2ccc(/C=C/C(=O)Nc3ccccc3N)cc2)nc2cc(Br)ccc2c1=O | 14 | 6.3 | 19.4 | 13.2 | 15.2 | 17.7 | 30.3 | 4 | 1.9 | 9 |  |  |
| CCn1c(SCc2ccc(C(=O)Nc3ccccc3N)cc2)nc2cc(F)ccc2c1=O | 56.5 | 10.3 | 64.3 | 0.8 | 20.4 | 25.7 | 31 | 8.4 | 54.4 | 5.3 |  |  |
| COc1ccc2c(=O)n(-c3cccc(Cl)c3)c(SCc3ccc(C(=O)Nc4ccccc4N)cc3)nc2c1 | 30 | 36 | 64 | 21.3 | 27 | 12.3 | 51.2 | 21.7 | 20.9 | 22 | 5.8 |  |
| CCCCn1c(SCc2ccc(/C=C/C(=O)Nc3ccccc3N)cc2)nc2cc(F)ccc2c1=O | 13.5 | 15.8 | 33.2 | 10.2 | 29 | 11.6 | 26.2 | 1.9 | 4.6 | 12 |  |  |
| Cc1cccc2nc(SCc3ccc(/C=C/C(=O)Nc4ccccc4N)cc3)n(C)c(=O)c12 | 46 | 32.4 | 11.7 | 50.5 | 52.3 | 44.3 | 51.8 | 24.4 | 39.4 | 8.9 |  | 3.56 |
| CCn1c(SCc2ccc(C(=O)Nc3ccccc3N)cc2)nc2cc(Br)ccc2c1=O | 45.4 | 40.7 | 68.5 | 22.9 | 36.8 | 30.4 | 41.3 | 19.8 | 20.4 | 24.8 | 4.33 |  |
| COc1ccc2c(=O)n(C)c(SCc3ccc(/C=C/C(=O)Nc4ccccc4N)cc3)nc2c1 | 56.6 | 10.4 | 12.2 | 3.6 | 15.4 | 20.7 | 30.2 | 2.5 | 54.3 | 9.4 |  |  |
| Cc1ccc2c(=O)n(C)c(SCc3ccc(/C=C/C(=O)Nc4ccccc4N)cc3)nc2c1 | 41.4 | 36.1 | 32.2 | 20.2 | 63.6 | 22.1 | 27.7 | 29 | 20.3 | 2.3 |  | 6.45 |
| COc1ccc2c(=O)n(-c3cccc(Cl)c3)c(SCC(=O)Nc3ccccc3N)nc2c1 | 28.2 | 43.3 | 6.6 | 24.6 | 38.1 | 27.8 | 38.5 | 3.2 | 13 | 3.9 |  |  |
| Cc1ccc2nc(SCc3ccc(/C=C/C(=O)Nc4ccccc4N)cc3)n(C)c(=O)c2c1 | 38.7 | 22.8 | 18.6 | 34.1 | 57.6 | 25.5 | 55.3 | 9 | 26.7 | 7.2 |  |  |
| CCn1c(SCc2ccc(C(=O)Nc3ccccc3N)cc2)nc2cc(OC)ccc2c1=O | 30.3 | 31.4 | 6.7 | 32.2 | 45.8 | 42.1 | 44 | 20 | 28 | 5 |  |  |
| COc1ccc2c(=O)n(-c3cccc(Cl)c3)c(SCc3ccc(/C=C/C(=O)Nc4ccccc4N)cc3)nc2c1 | 37.2 | 8.9 | 12.7 | 0.7 | 5.1 | 16.3 | 24.9 | 5.4 | 4.1 | 2.1 |  |  |
| Nc1ccccc1NC(=O)c1ccc(CSc2nc3cc(Br)ccc3c(=O)n2-c2cccc(Cl)c2)cc1 | 36.4 | 32.9 | 31.3 | 10.5 | 21 | 55 | 67 | 17.4 | 35.6 | 11.3 |  |  |
